Test system: 485176-168-R4-J1-PDC complex spheroid growth
Test: Anticancer human tumor 485176-168-R4-J1-PDC patient-derived pancreatic adenocarcinoma cell line growth inhibition [RAS]
Conditions: for viability, T/C: stronger effect = lower value; active means viability on the fitted dose curve at most 10% of control; inactive means the rest
How it was run: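 Multi-cell-type spheroids: tumor cells plus HUVEC endothelial cells and mesenchymal stem cells. RAS-pathway inhibitors were combined with targeted agents, each dosed in half-log steps down from clinical Cmax, or from 10 microM when Cmax was unknown.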

[1] = curve of first compound, second compound 0.000949 µM
[2] = curve of first compound, second compound 0.003 µM
[3] = curve of first compound, second compound 0.00949 µM
[4] = curve of first compound, second compound 0.03 µM
[5] = curve of first compound, second compound 0.0949 µM
[6] = curve of first compound, second compound 0.3 µM
[7] = second compound 0.000949 µM, first compound 0.0316 µM
[8] = second compound 0.000949 µM, first compound 0.1 µM
[9] = second compound 0.000949 µM, first compound 0.316 µM
[10] = second compound 0.000949 µM, first compound 1 µM
[11] = second compound 0.003 µM, first compound 0.0316 µM
[12] = second compound 0.003 µM, first compound 0.1 µM
[13] = second compound 0.003 µM, first compound 0.316 µM
[14] = second compound 0.003 µM, first compound 1 µM
[15] = second compound 0.00949 µM, first compound 0.0316 µM
[16] = second compound 0.00949 µM, first compound 0.1 µM
[17] = second compound 0.00949 µM, first compound 0.316 µM
[18] = second compound 0.00949 µM, first compound 1 µM
[19] = second compound 0.03 µM, first compound 0.0316 µM
[20] = second compound 0.03 µM, first compound 0.1 µM
[21] = second compound 0.03 µM, first compound 0.316 µM
[22] = second compound 0.03 µM, first compound 1 µM
[23] = second compound 0.0949 µM, first compound 0.0316 µM
[24] = second compound 0.0949 µM, first compound 0.1 µM
[25] = second compound 0.0949 µM, first compound 0.316 µM
[26] = second compound 0.0949 µM, first compound 1 µM
[27] = second compound 0.3 µM, first compound 0.0316 µM
[28] = second compound 0.3 µM, first compound 0.1 µM
[29] = second compound 0.3 µM, first compound 0.316 µM
[30] = second compound 0.3 µM, first compound 1 µM
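Further: spheroids exposed to compounds for seven days before readout.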
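Wherever viability, T/C is given: luminescence viability expressed relative to DMSO vehicle wells set as 100%.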

C=CC(=O)Nc1cc(Nc2nccc(-c3cn(C)c4ccccc34)n2)c(OC)cc1N(C)CCN(C)C + CCn1c(-c2cccnc2C(C)OC)c2c3cc(ccc31)N1CCOC(CC(NC(=O)C(C(C)C)N(C)C(=O)C3(F)CCN(C(=O)C#CC(C)(C)N(C)C)CC3)C(=O)N3CCCC(N3)C(=O)OCC(C)(C)C2)C1
> 1000 nM: IC50 [1] | IC50 [2] | IC50 [3] | IC50 [4] | IC50 [5] | IC50 [6]
inactive: viability, T/C (second compound 0.000949 µM, first compound 0.00316 µM) 114% | viability, T/C (second compound 0.000949 µM, first compound 0.01 µM) 109% | viability, T/C [7] 102% | viability, T/C [8] 97.6% | viability, T/C [9] 84.5% | viability, T/C [10] 72% | viability, T/C (second compound 0.003 µM, first compound 0.00316 µM) 98.2% | viability, T/C (second compound 0.003 µM, first compound 0.01 µM) 105% | viability, T/C [11] 90.3% | viability, T/C [12] 85.6% | viability, T/C [13] 99.1% | viability, T/C [14] 61.4% | viability, T/C (second compound 0.00949 µM, first compound 0.00316 µM) 104% | viability, T/C (second compound 0.00949 µM, first compound 0.01 µM) 109% | viability, T/C [15] 102% | viability, T/C [16] 88.2% | viability, T/C [17] 80.8% | viability, T/C [18] 69% | viability, T/C (second compound 0.03 µM, first compound 0.00316 µM) 86.8% | viability, T/C (second compound 0.03 µM, first compound 0.01 µM) 113% | viability, T/C [19] 114% | viability, T/C [20] 102% | viability, T/C [21] 89.9% | viability, T/C [22] 58.7% | viability, T/C (second compound 0.0949 µM, first compound 0.00316 µM) 81.6% | viability, T/C (second compound 0.0949 µM, first compound 0.01 µM) 77.9% | viability, T/C [23] 81.6% | viability, T/C [24] 96.5% | viability, T/C [25] 92.3% | viability, T/C [26] 57.1% | viability, T/C (second compound 0.3 µM, first compound 0.00316 µM) 87.6% | viability, T/C (second compound 0.3 µM, first compound 0.01 µM) 93% | viability, T/C [27] 82.7% | viability, T/C [28] 93.1% | viability, T/C [29] 78.3% | viability, T/C [30] 65.9%

CCn1c(-c2cccnc2C(C)OC)c2c3cc(ccc31)N1CCOC(CC(NC(=O)C(C(C)C)N(C)C(=O)C3(F)CCN(C(=O)C#CC(C)(C)N(C)C)CC3)C(=O)N3CCCC(N3)C(=O)OCC(C)(C)C2)C1 (configuration not stated)
> 300 nM: IC50 (compound alone, run of 05/20/2024)
inactive: viability, T/C (compound 0.003 µM) 104% [middle of 8 runs] | viability, T/C (compound 0.00949 µM) 107% [middle of 8 runs] | viability, T/C (compound 0.03 µM) 93.8% [middle of 8 runs] | viability, T/C (compound 0.0949 µM) 93% [middle of 8 runs] | viability, T/C (compound 0.3 µM) 81.7% [middle of 8 runs]

O=C(c1ccc(F)c(F)c1Nc1ccc(I)cc1F)N1CC(O)([C@@H]2CCCCN2)C1
inactive: viability, T/C (compound 0.00316 µM) 91.9% [middle of 4 runs] | viability, T/C (compound 0.01 µM) 78.6% [middle of 4 runs] | viability, T/C (compound 0.0316 µM) 71% [middle of 4 runs] | viability, T/C (compound 0.1 µM) 53.7% [middle of 4 runs] | viability, T/C (compound 0.316 µM) 51.2% [middle of 4 runs] | viability, T/C (compound 1 µM) 39.7% [middle of 4 runs]
206 nM [middle of 4 runs]: IC50 (curve of compound)

NC1c2ccccc2OC12CCN(c1cnc3c(N4CCCc5ncccc54)n[nH]c3n1)CC2 (configuration not stated) + CCn1c(-c2cc(N3CCN(C)CC3)cnc2C(C)OC)c2c3cc(ccc31)-c1csc(n1)CC(NC(=O)C1CC1C)C(=O)N1CCCC(N1)C(=O)OCC(C)(C)C2
> 10000 nM: IC50 [1] | IC50 [2] | IC50 [3] | IC50 [4] | IC50 [5] | IC50 [6]
inactive: viability, T/C [7] 86.4% | viability, T/C [8] 88.8% | viability, T/C [9] 97.4% | viability, T/C [10] 85% | viability, T/C (second compound 0.000949 µM, first compound 3.16 µM) 89.2% | viability, T/C (second compound 0.000949 µM, first compound 10 µM) 79.1% | viability, T/C [11] 93.1% | viability, T/C [12] 80.9% | viability, T/C [13] 76.7% | viability, T/C [14] 97.9% | viability, T/C (second compound 0.003 µM, first compound 3.16 µM) 91.8% | viability, T/C (second compound 0.003 µM, first compound 10 µM) 81.4% | viability, T/C [15] 81.7% | viability, T/C [16] 93.2% | viability, T/C [17] 76.2% | viability, T/C [18] 81.1% | viability, T/C (second compound 0.00949 µM, first compound 3.16 µM) 81.9% | viability, T/C (second compound 0.00949 µM, first compound 10 µM) 67.2% | viability, T/C [19] 83% | viability, T/C [20] 98% | viability, T/C [21] 83.4% | viability, T/C [22] 104% | viability, T/C (second compound 0.03 µM, first compound 3.16 µM) 91% | viability, T/C (second compound 0.03 µM, first compound 10 µM) 79% | viability, T/C [23] 80.8% | viability, T/C [24] 82% | viability, T/C [25] 76.9% | viability, T/C [26] 85.2% | viability, T/C (second compound 0.0949 µM, first compound 3.16 µM) 100% | viability, T/C (second compound 0.0949 µM, first compound 10 µM) 76.9% | viability, T/C [27] 87.4% | viability, T/C [28] 86.1% | viability, T/C [29] 69% | viability, T/C [30] 80.1% | viability, T/C (second compound 0.3 µM, first compound 3.16 µM) 83.1% | viability, T/C (second compound 0.3 µM, first compound 10 µM) 75.1%

From PubChem BioAssay AID2060906 (Molecular Pharmacology Branch, DTP, NCI, 2025)
